The subject of one assay is patients with dry AMD. Put plainly: Incidence of all neoplasms and basal cell carcinoma in patients with dry AMD (Example 6). It counts as in vivo, human. Conditions: for Basal Cell Carcinoma, number of patients: placebo 5 of 82; for Basal Cell Carcinoma, incidence: placebo 6.1%; for All neoplasms, number of patients: placebo 14 of 82; for All neoplasms, incidence: placebo 17.1%. The protocol:
Patients with dry AMD were selected. Patients are divided into three groups. Group I (n=82) received a placebo. Group II (n=80) received fenretinide at a dose of 100 mg/day. Group III (n=84) received fenretinide at a dose of 300 mg/day. Incidence of all neoplasms and basal cell carcinoma was determined for each group.

The test system of assay [1] is human that suffers from geographic atrophy (GA), secondary to age related macular degeneration (AMD). Put plainly: Rate of skin neoplasms/cancer in patients with geographic atrophy secondary to AMD (Example 1). The note with it: orally 100 mg/day, placebo 9.8%. In kind it is in vivo. The protocol: Two patient cohorts were selected. Each member of each patient cohort was a human that suffers from geographic atrophy (GA), secondary to age related macular degeneration (AMD). The mean concentration of serum retinol binding protein in the patients at baseline was approximately 60 μg/mL. The average concentration of serum retinol binding protein in normal individuals of the same type is about 25 μg/mL to about 40 μg/mL. In the first patient population, individuals were orally administered 100 mg/day fenretinide. In the second patient population, individuals were orally administered a placebo. The placebo group developed skin neoplasms (including basal cell carcinoma, squamous cell carcinoma, and/or melanoma) at a rate of 9.8%. In the first patient population, individuals developed cancer (including basal cell carcinoma, squamous cell carcinoma, and/or melanoma) at a rate of 2.5%. […] FIG. 4 illustrates the cytotoxicity of fenretinide on the melanoma cell line (B16 (RL)). FIG. 5 illustrates the effect of fenretinide and compounds of Formula II (designated SIR-1001 and SIR-1005) on two human melanoma cell lines (M207 and SK-MEL28).

The next assay concerns the target T1, Sigma 1 receptor (Cavia porcellus, UniProt Q60492).
T1 construct: guinea pig brain membrane aliquots were thawed, and then suspended at a concentration of 1 mg protein/ml; from tissue; host or cells: guinea pig brain membranes
Put plainly: Sigma 1 receptor binding assay with [3H](+)-pentazocine. Conditions: competing ligand 10 μM; [3H](+)-pentazocine 1.0 nM or 0-10 nM; guinea pig brain membrane. As to the method: Sigma 1 receptor binding assays were performed according to DeHaven-Hudkins et al. (1992). In brief, guinea pig brain membrane aliquots were thawed, and then suspended at a concentration of 1 mg protein/ml by adding fresh sigma 1 assay buffer (50 mM Tris-HCl; pH 7.4, 25° C.). Each glass assay tube was kept at a final volume of 1.0 ml, contained 0.25 mg protein, and was incubated for 150 min at 37° C. with [3H](+)-pentazocine. [3H](+)-Pentazocine was used at either a single concentration (1.0 nM, FIG. 6) or at a range of concentrations (0-10 nM, FIG. 7). Nonspecific binding was defined by haloperidol (1.0 μM). Competing ligand concentration (e.g., fenretinide) was 10 μM. Assays were terminated by addition of ice-cold […] (5 ml) and filtration, using a cell harvester (Brandel, Gaithersburg, Md.), through glass fiber filters (GF/B) that had been pretreated with polyethyleneimine (0.5%) for 60 min. Tubes and filter discs were washed (3×3.5 ml) with ice-cold assay buffer, and the filter discs dried under vacuum. Scintillation counting was carried out after incubation of the discs with cocktail for at least 18 h.

The subject of assay [2] is complement genes (Crry, CFH, MCP-1, CD59a, Daf2, and CD59b). Put plainly: Expression of complement genes in ocular tissue by RT-PCR. In kind it is in vivo, BALB/c mice. The note with it: RT-PCR normalized to 18S RNA. As to the method:
The effects of fenretinide on expression of complement genes was studies in […].
Fenretinide supplemented chow ([…]), or control chow, was fed to pregnant mice. Birthed litters were maintained for 4 weeks. Mice were euthanized after 4 weeks and ocular tissue was prepared for RNA extraction. Expression of complement genes was determined by RT-PCR. Data was normalized to expression of 18S RNA.
Litters of mice were separated into 2 groups just prior to weaning (4 weeks of age). Mice in Group I were fed fenretinide supplemented chow (1 g fenretinide/kg chow) for 7 weeks. Mice in Group II were fed control chow for 7 weeks. Mice were euthanized after 7 weeks and ocular tissue was prepared for RNA extraction. Expression of complement genes was determined by RT-PCR. Data was normalized to expression of 18S RNA.

The record followed here is patent US20130012591A1, “PROPHYLAXIS OF SKIN CANCER WITH RETINAMIDES” (Revision Therapeutics, Inc., priority 2009, published 2013).

Entries after “also recorded” stand apart in the source; their conditions may differ.

T1 sequence (Q60492 whole entry): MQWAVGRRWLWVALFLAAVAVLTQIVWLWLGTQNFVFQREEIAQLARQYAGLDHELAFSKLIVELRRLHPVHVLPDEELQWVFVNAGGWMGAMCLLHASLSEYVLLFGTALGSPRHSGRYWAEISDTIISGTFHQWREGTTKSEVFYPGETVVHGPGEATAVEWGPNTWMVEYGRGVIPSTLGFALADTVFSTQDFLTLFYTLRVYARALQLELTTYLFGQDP

On to `CC1=C(/C=C/C(C)=C/C=C/C(C)=C/C(=O)Nc2ccc(O)cc2)C(C)(C)CCC1` [fenretinide, N-(4-hydroxyphenyl)retinamide], for which, in the assay on patients with dry AMD (100 mg/day fenretinide, n = 80), the “Basal Cell Carcinoma, number of patients” value is recorded as 2; the “Basal Cell Carcinoma, incidence” value is given as 2.5%; the “All neoplasms, number of patients” value is listed as 4; the “All neoplasms, incidence” value turned out to be 5.0%. In addition, in the assay on patients with dry AMD (300 mg/day fenretinide, n = 84), the “Basal Cell Carcinoma, number of patients” value was 3; the “Basal Cell Carcinoma, incidence” value stood at 3.6%; the “All neoplasms, number of patients” value amounted to 10; the “All neoplasms, incidence” value was found to be 11.9%. Moreover, the “rate at which individuals developed cancer (including basal cell carcinoma, squamous cell carcinoma, and/or melanoma)” value in assay [1] came to 2.5%. At Sigma 1 receptor, the “binding of [3H]Pentazocine to Sigma-1 receptor in the presence of competing ligand” value is recorded as “reduced binding”. The “expression of complement genes Crry, CFH, MCP-1, CD59a, CD59b, Daf2 in the eye” value in assay [2] (high dose: supplemented chow (Ig fenretinide/kg chow) fed to pregnant mice, litters maintained 4 weeks, FIG. 9) is listed as “down-regulation; also recorded: down-regulates”. Besides, in assay [2] (low dose: chow 1 g fenretinide/kg for 7 weeks from weaning, FIG. 8), the “expression of complement genes Crry, CFH, MCP-1, CD59a, CD59b, Daf2 in the eye” value was “up-regulation; also recorded: up-regulates”.
